From US4542123A (Massachusetts Institute of Technology, priority 1982, dated 1985)
“Also recorded” adds a separate entry of the source.

Tests used:
[1] = Brain and serum tyrosine in fasted rats given tyrosine alone or tyrosine and glucose (Example III, Table 2); type: in vivo, Sprague-Dawley rats; conditions: tyrosine 100 mg/kg alone; 90 min
in vivo = conditions: rat, po, 100 mg/kg
[2] = Brain and plasma tyrosine ratios in fasted rats, tyrosine and glucose given concurrently (Example II, second set); conditions: rat, brain, po, 100 mg/kg
[3] = Plasma amino acid levels after glucose ingestion (Example I, Table 1); type: in vivo, human
Experimental: (§1) Six healthy, non-obese, fasting subjects each received, on different days 0, 6, 12.5, 25 or 50 g of glucose (Glucola) in a total volume of 100 ml.
(§2) Following a protocol approved by the Massachusetts Institute of Technology Committee on the Use of Humans as Experimental Subjects, 6 healthy volunteer outpatients, aged 25-33 years, participated in the study; 3 were males and 3 females. Mean weight was 60 kg for the women and 70 for the men; all subjects were within 10% of their ideal body weight as determined by Metropolitan Life Insurance Company tables. […] Subjects were asked to take meals rich in carbohydrate content (about 300 g/day) for 3 days before beginning the study. On 5 separate days, each subject fasted from 8 p.m. until 9 the next morning and then received a load of 0, 6, 12.5, 25 or 50 g of glucose (caffeine-free glucola) dissolved in water in a total volume of 100 ml; the order of doses was randomized. Venous blood samples were drawn from the antecubital vein through an indwelling catheter at 0, 60 and 120 min for all doses and additionally at 30 and 180 min for the 12.5, 25 and 50 g doses. Blood was collected in heparanized tubes; after centrifugation plasma was stored at -20° C. until analyzed. […] Glucose was analyzed spectrophotometrically after reaction with O-toluidine in hot acidic acid (Sigma Bulletin #635;15). Insulin was measured using a commercial radioimmunoassay kit by a double antibody method (Bio-RIA, Louisville, Ky.). Plasma tryptophan was measured fluorometrically on 20 μl plasma aliquots by the method of Denckla and Dewey, J. Lab. Clin. Med. 69: 160-169, 1967, as modified by Lehman, Scand. J. Clin. Lab. Invest. 28: 49-55, 1971. Branched-chain amino acids and aromatic amino acids were measured in 500 μl aliquots of plasma, deproteinized with sulfosalicylic acid, using a Beckman amino acid analyzer (Beckman Instruments, Palo Alto, Calif., Model 119C).
(§3) Data, given as means ±SE errors, were analyzed by two-way analysis of variance; factors compared were dose and time. The Scheffe test was employed to test the statistical significance of differences; p<0.05 was considered significant. Areas under the curves were evaluated by the method of trapezoid approximation. Student tests for paired data were used to evaluate the significance of changes in individual amino acids. Amino acid concentrations after treatments for each subject were also expressed as a percentage of that day's pretreatment levels; mean percent changes were then calculated for each treatment and time interval.
Sum of the LNAA: total concentration of leucine, isoleucine, valine,
the sum of the LNAA, measured 0, 60 and 120 min after 6 nonobese, fasting
subjects ingested 0, 6, 12.5, 25 or 50 g of glucose. All plasma amino
acids, except tryptophan, were measured on a Beckman amino acid analyzer.
Tryptophan was measured by the method of Denckla and Dewey. Data are
expressed as means ± S.E.M.

clinical = conditions: in vivo
Experimental: as §1
as §2, with “Venous blood samples were drawn from the antecubital vein through an indwelling catheter at 0, 60 and 120 min for all doses and additionally at 30 and 180 min for the 12.5, 25 and 50 g doses.” left out, “Clin. Med. 69: 160-169, 1967, as modified by Lehman, Scand. J. Clin. Lab. Invest. 28: 49-55, 1971.” left out
Data, given as means ±SE errors, were analyzed by two-way analysis of variance; factors compared were dose and time. […] Areas under the curves were evaluated by the method of trapezoid approximation. […] Amino acid concentrations after treatments for each subject were also expressed as a percentage of that day's pretreatment levels; mean percent changes were then calculated for each treatment and time interval.

[4] = Plasma insulin after glucose ingestion, radioimmunoassay (Example I); type: in vivo, human
Experimental: as §1, §2, §3

## N[C@@H](Cc1ccc(O)cc1)C(=O)O [Tyrosine, tyrosine]
[1]
  Brain Tyrosine: 23.0 ± 2.2 µg/mL
  Brain/Serum (tyrosine): 1.02 ± 0.1
  Serum Tyrosine/Serum LNAA: .304
In vivo; brain
  Kp at 1 h: 0.78
In vivo; serum
  concentration at 1 h: 20.9 µg/mL
[2]
  Kp at […]: 0.77

## O=C[C@H](O)[C@@H](O)[C@H](O)[C@H](O)CO [Glucose, glucose]
[3]; 6-50 g glucose
  Absolute leucine concentrations: decreased significantly after 6-50 g
[3]; 6 g of glucose
  LNAA concentrations, some subjects: transiently decreased LNAA concentrations
[3]; 12.5-50 g glucose
  All other amino acids (absolute concentrations): decreased significantly after 12.5-50 g
[3]; 12.5-50 g glucose, subjects 2 and 4, not robust for other subjects
  Relationship between rise in plasma insulin and fall in LNAA (areas under the curve): clear inverse linear relationship
[3]; 25 and 50 g, 60 and 120 min, P<0.05
  Decrease of plasma LNAA vs 0 and 6 g doses: significantly greater than those following the 0 and 6 g doses
[3]; 50 g glucose, 120 min
  Decrease of branched-chain amino acids: 35-41%
  Decrease of methionine: 31%
  Decrease of phenylalanine and tyrosine: 29-31%
  Decrease of tryptophan: 23%
[3]; 50 g vs 25 g glucose
  Percent reduction in plasma LNAA, 50-g vs 25-g dose: not consistently associated with a greater percent reduction in plasma LNAA
[3]; 50 g vs 25 g glucose, 120 min, zero-time LNAA also lower
  Absolute concentrations of amino acids, 50-g vs 25-g dose: lower absolute concentrations of the amino acids than the 25-g dose after 120 min
[3]; 60 and 120 min
  Plasma LNAA concentrations (percent of pre-treatment): dose-related depression of plasma LNAA concentrations
[3]; 120 min, P<0.01
  Correlation (r) of glucose dose with mean percent decrease in LNAA: 0.80
[3]; after 50 g of glucose
  Decrease of branched-chain amino acids: 35-41%
  Fall of plasma tyrosine concentrations: 23%
  Ratio of plasma tyrosine to other plasma LNAA: increased significantly
[3]; after all treatments (0-50 g glucose)
  Absolute isoleucine concentrations: decreased significantly with time after all treatments
[3]; any glucose dose
  Tyrosine/LNAA ratio: did not change significantly
[3]; glucose 6 g, 0 min
  Plasma Iso level: 60 ± 7 nmol/mL
  Plasma LNAA (sum): 522 ± 47 nmol/mL
  Plasma Leu level: 113 ± 11 nmol/mL
  Plasma Met level: 24 ± 4 nmol/mL
  Plasma Phe level: 50 ± 3 nmol/mL
  Plasma Trp level: 46 ± 4 nmol/mL
  Plasma Tyr level: 57 ± 8 nmol/mL
  Plasma Val level: 220 ± 19 nmol/mL
  Trp/LNAA: .088
[3]; glucose 6 g, 60 min
  Plasma Iso level: 51 ± 4 nmol/mL
  Plasma Leu level: 100 ± 12 nmol/mL
  Plasma Met level: 21 ± 3 nmol/mL
  Plasma Phe level: 46 ± 2 nmol/mL
  Plasma Trp level: 43 ± 4 nmol/mL
  Plasma Tyr level: 51 ± 7 nmol/mL
  Plasma Val level: 201 ± 15 nmol/mL
  Trp/LNAA: .092
[3]; glucose 6 g, 120 min
  Plasma Iso level: 51 ± 5 nmol/mL
  Plasma LNAA (sum): 471 ± 37 nmol/mL
  Plasma Leu level: 101 ± 9 nmol/mL
  Plasma Met level: 22 ± 3 nmol/mL
  Plasma Phe level: 47 ± 3 nmol/mL
  Plasma Trp level: 41 ± 4 nmol/mL
  Plasma Tyr level: 50 ± 6 nmol/mL
  Plasma Val level: 200 ± 16 nmol/mL
  Trp/LNAA: .086
[3]; glucose 12.5 g, 0 min
  Plasma Iso level: 65 ± 5 nmol/mL
  Plasma LNAA (sum): 574 ± 15 nmol/mL
  Plasma Leu level: 117 ± 10 nmol/mL
  Plasma Met level: 27 ± 2 nmol/mL
  Plasma Phe level: 54 ± 4 nmol/mL
  Plasma Trp level: 45 ± 2 nmol/mL
  Plasma Tyr level: 58 ± 4 nmol/mL
  Plasma Val level: 255 ± 47 nmol/mL
  Trp/LNAA: .079
[3]; glucose 12.5 g, 60 min
  Plasma Iso level: 53 ± 4 nmol/mL
  Plasma LNAA (sum): 501 ± 66 nmol/mL
  Plasma Leu level: 96 ± 10 nmol/mL
  Plasma Met level: 25 ± 1 nmol/mL
  Plasma Phe level: 50 ± 3 nmol/mL
  Plasma Trp level: 40 ± 1 nmol/mL
  Plasma Tyr level: 52 ± 3 nmol/mL
  Plasma Val level: 226 ± 48 nmol/mL
  Trp/LNAA: .080
[3]; glucose 12.5 g, 120 min
  Plasma Iso level: 48 ± 3 nmol/mL
  Plasma LNAA (sum): 582 ± 49 nmol/mL
  Plasma Leu level: 95 ± 9 nmol/mL
  Plasma Met level: 23 ± 1 nmol/mL
  Plasma Phe level: 46 ± 2 nmol/mL
  Plasma Trp level: 41 ± 1 nmol/mL
  Plasma Tyr level: 50 ± 3 nmol/mL
  Plasma Val level: 221 ± 98 nmol/mL
  Trp/LNAA: .084
[3]; glucose 25 g, 0 min
  Plasma Iso level: 71 ± 6 nmol/mL
  Plasma LNAA (sum): 639 ± 79 nmol/mL
  Plasma Leu level: 130 ± 13 nmol/mL
  Plasma Met level: 26 ± 3 nmol/mL
  Plasma Phe level: 56 ± 3 nmol/mL
  Plasma Trp level: 47 ± 2 nmol/mL
  Plasma Tyr level: 63 ± 3 nmol/mL
  Plasma Val level: 294 ± 50 nmol/mL
  Trp/LNAA: .073
[3]; glucose 25 g, 60 min
  Plasma Iso level: 48 ± 4 nmol/mL
  Plasma LNAA (sum): 466 ± 45 nmol/mL
  Plasma Leu level: 84 ± 10 nmol/mL
  Plasma Met level: 21 ± 2 nmol/mL
  Plasma Phe level: 47 ± 4 nmol/mL
  Plasma Trp level: 42 ± 2 nmol/mL
  Plasma Tyr level: 49 ± 2 nmol/mL
  Plasma Val level: 218 ± 29 nmol/mL
  Trp/LNAA: .091
[3]; glucose 25 g, 120 min
  Plasma Iso level: 46 ± 4 nmol/mL
  Plasma LNAA (sum): 454 ± 40 nmol/mL
  Plasma Leu level: 91 ± 8 nmol/mL
  Plasma Met level: 19 ± 2 nmol/mL
  Plasma Phe level: 41 ± 2 nmol/mL
  Plasma Trp level: 41 ± 3 nmol/mL
  Plasma Tyr level: 46 ± 2 nmol/mL
  Plasma Val level: 212 ± 26 nmol/mL
  Trp/LNAA: .089
[3]; glucose 50 g, 0 min
  Plasma Iso level: 61 ± 4 nmol/mL
  Plasma LNAA (sum): 573 ± 60 nmol/mL
  Plasma Leu level: 114 ± 11 nmol/mL
  Plasma Met level: 26 ± 2 nmol/mL
  Plasma Phe level: 50 ± 2 nmol/mL
  Plasma Trp level: 46 ± 2 nmol/mL
  Plasma Tyr level: 59 ± 4 nmol/mL
  Plasma Val level: 262 ± 40 nmol/mL
  Trp/LNAA: .080
[3]; glucose 50 g, 60 min
  Plasma Iso level: 48 ± 2 nmol/mL
  Plasma LNAA (sum): 469 ± 52 nmol/mL
  Plasma Leu level: 93 ± 11 nmol/mL
  Plasma Met level: 21 ± 2 nmol/mL
  Plasma Phe level: 50 ± 4 nmol/mL
  Plasma Trp level: 40 ± 1 nmol/mL
  Plasma Tyr level: 43 ± 3 nmol/mL
  Plasma Val level: 215 ± 32 nmol/mL
  Trp/LNAA: .085
[3]; glucose 50 g, 120 min
  Plasma Iso level: 36 ± 4 nmol/mL
  Plasma LNAA (sum): 372 ± 50 nmol/mL
  Plasma Leu level: 72 ± 10 nmol/mL
  Plasma Met level: 18 ± 2 nmol/mL
  Plasma Phe level: 37 ± 2 nmol/mL
  Plasma Trp level: 35 ± 2 nmol/mL
  Plasma Tyr level: 40 ± 4 nmol/mL
  Plasma Val level: 170 ± 30 nmol/mL
  Trp/LNAA: .094
[3]; healthy fasting subjects, most clearly observed after 120 min
  Mean percent reductions of LNAA, dose-dependence: tended to exhibit dose-dependence; also recorded: dose-related decreases in plasma LNAA concentrations
[3]; healthy young fasting subjects
  Glucose doses needed to increase the plasma TRP/LNAA ratio: 25 to 50 g
[3]; high intra- and inter-individual variations in basal LNAA
  Mean absolute LNAA concentrations, dose-related decrease: no significant dose-related decreases in mean absolute LNAA concentrations
[3]; smaller reduction in plasma tryptophan
  Tryptophan/LNAA ratio: became elevated
[3]; some subjects
  Glucose dose sufficient to decrease LNAA: 6 g
[3]; subject 2
  Glucose dose probably required to reduce plasma LNAA: ~12.5 g
[3]; subject 4
  Glucose dose that may have been needed to reduce plasma LNAA: ~25 g
[3]; subjects 1, 3, 5 and 6, one or more of the times tested
  Glucose dose that may have been sufficient to reduce plasma LNAA: ~6 g
clinical; human
  Mean plasma glucose concentration: 83±2.2 mg %
clinical; human, po, Mean plasma glucose concentration
  concentration at 0.5 h: 1050 ± 86 µg/mL
clinical
  Time for plasma glucose to return to baseline: 60 to 120 min
[4]; 50 g vs 25 g glucose
  Elevation in insulin, 50-g vs 25-g dose: greater elevation in insulin than the 25-g dose in 4 of the 6 subjects
[4]; 30 min after 12.5, 25 or 50 g of glucose
  Insulin levels: significantly elevated
[4]; before ingestion (baseline)
  Mean insulin concentration: 9±0.9 μU/ml
[4]; glucose 12.5 g, 30 min
  Mean insulin concentration: 21.3±3.8 μU/ml
[4]; glucose 25 g, 30 min
  Mean insulin concentration: 44±5.0 μU/ml
[4]; glucose 50 g, 30 min
  Mean insulin concentration: 58±6.9 μU/ml
